pIC50: −log10 of the molar value. Where two headings read alike, the source gives them in different places.
Columns and labels:
papain = target: T1, papain (Carica papaya, UniProt P00784); experiment: In vitro assay procedure for papain (inhibition); assay type: biochemical
T1 sequence (P00784 134-345): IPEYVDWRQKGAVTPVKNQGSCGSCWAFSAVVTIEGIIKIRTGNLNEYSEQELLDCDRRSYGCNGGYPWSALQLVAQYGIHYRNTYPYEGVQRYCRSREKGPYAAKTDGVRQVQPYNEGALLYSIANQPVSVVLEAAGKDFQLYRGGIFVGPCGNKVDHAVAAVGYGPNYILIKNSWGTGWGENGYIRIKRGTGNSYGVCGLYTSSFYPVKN
Method: To a 170 μl of enzyme-buffer mixture (enzyme: papain, diluted to give 30 mOD/min, buffer: 0.2 M potassium phosphate, 1.0 mM EDTA, 5 mM L-Cysteine, pH 6.5) a 10 μL of inhibitor (dissolved in DMSO) was added. After 10 min of incubation at room temperature, a 20 μl of 10 mM substrate (N-CBZ-Pro-Phe-Arg-pNA, dissolved in DMSO) was added to initiate reaction. Reading is followed up for 3 min at the Thermomax plate reader (absorbance at 405 nm)
A plot of percentage of inhibition vs inhibitor concentration is obtained, and IC50 is determined using a linear regression calculations (concentration of inhibitor which will give 50% inhibition).

cathepsin B = cathepsin B (Rattus norvegicus, UniProt P00787); experiment: In vitro assay procedure for cathepsin B (inhibition); assay type: biochemical; settings: rat cathepsin B, pH 5.1, 10 min incubation at room temperature, substrate N-CBZ-Phe-Arg-AMC; read-out: IC50 Cathepsin B
cathepsin B, sequence (P00787 80-339): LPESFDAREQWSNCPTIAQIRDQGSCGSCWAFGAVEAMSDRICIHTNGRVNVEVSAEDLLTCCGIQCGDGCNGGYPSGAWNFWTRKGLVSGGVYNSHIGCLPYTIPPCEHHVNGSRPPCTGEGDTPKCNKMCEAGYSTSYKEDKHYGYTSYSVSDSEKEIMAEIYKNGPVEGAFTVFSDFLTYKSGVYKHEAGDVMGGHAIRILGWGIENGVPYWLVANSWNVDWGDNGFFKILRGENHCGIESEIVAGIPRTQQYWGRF
Method: The compounds of formula I were tested for inhibition of cathepsin B using the known method (A. J. Barret et al., Biochem. J. 1982, 201, 189-198). […] After 10 min of incubation at room temperature, a 20 μl of 5 mM substrate (N-CBZ-Phe-Arg-AMC, dissolved in DMSO) was added to initiate reaction. Reading is followed up for 10 min at the fluoroscan reader (excitation at 380 nm, emission at 460 nm).

[1] = pH 6.5, 10 min incubation at room temperature, substrate N-CBZ-Pro-Phe-Arg-pNA, read-out: IC50 Papain

| Structure (SMILES) | pIC50 (papain) | pIC50 (cathepsin B) | pIC50 (papain; [1]) |
| --- | --- | --- | --- |
| O=C(O)CC1CN2C(=O)CC2O1 (centres unmarked) | 5.77 | 5.40 | – |
| O=C(N[C@@H](Cc1ccccc1)C(=O)OC[C@H]1CN2C(=O)C[C@@H]2O1)OCc1ccccc1 (mixture of isomers) [Example 4, (3RS,5SR)-3-{N-(benzyloxycarbonyl)-L-phenylalanyl}-oxymethyl-4-oxa-1-azabicyclo [3,2,0] heptan-7-one] | – | 6.23 | 6.62 |
| O=C(OC[C@H]1CN2C(=O)C[C@@H]2O1)[C@@H]1CCCN1C(=O)OCc1ccccc1 (mixture of isomers) [Example 5, (3RS,5SR)-3-{N-(benzyloxycarbonyl)-L-prolyl}-oxymethyl-4-oxa-1-azabicyclo[3,2,0] heptan-7-one] | – | 6.36 | 6.31 |
| CC[C@H](C)[C@H](NC(=O)OCc1ccccc1)C(=O)OC[C@H]1CN2C(=O)C[C@@H]2O1 (mixture of isomers) [Example 6, (3RS,5SR) -3-{N-(benzyloxycarbonyl)-L-isoleucyl}-oxymethyl-4-oxa-1-azabicyclo [3,2,0] heptan-7-one] | – | 6.29 | 6.42 |
| O=C(CNC(=O)[C@H](Cc1ccccc1)NC(=O)OCc1ccccc1)OC[C@H]1CN2C(=O)C[C@@H]2O1 (mixture of isomers) [Example 7, (3RS,5SR)-3-{N-(benzyloxycarbonyl)-L-phenylalanyl-glycyl}-oxymethyl-4-oxa-1-azabicyclo [3,2,0] heptan-7-one] | – | 5.51 | 5.45 |
| CC[C@H](C)[C@H](NC(=O)OCc1ccccc1)C(=O)N1CCC[C@H]1C(=O)OC[C@H]1CN2C(=O)C[C@@H]2O1 (mixture of isomers) [Example 8, (3RS, 5SR)-3-{N-(benzyloxycarbonyl)-L-isoleucyl-L-prolyl}-oxymethyl-4-oxa-1-azabicyclo [3,2,0] heptan-7-one] | – | 5.35 | 6.13 |
| CC(C)C[C@H](NC(=O)OCc1ccccc1)C(=O)N1CCC[C@H]1C(=O)OC[C@H]1CN2C(=O)C[C@@H]2O1 (mixture of isomers) [Example 9, (3RS, 5SR)-3-{N-(benzyloxycarbonyl)-L-leucyl-L-prolyl}-oxymethyl-4-oxa-1-azabicyclo [3,2,0] heptan-7-one] | – | 5.54 | 5.69 |
| O=C(OC[C@H]1CN2C(=O)C[C@@H]2O1)C1CCCCC1 (racemic) [Example 11, (3RS,5SR)-3-(cyclohexanecarbonyloxymethyl)-4-oxa-1-azabicyclo [3,2,0] heptan-7-one] | – | 6.10 | 6.00 |
| O=C(OC[C@H]1CN2C(=O)C[C@@H]2O1)C1CCCC1 (racemic) [Example 12, (3RS,5SR)-3-(cyclopentanecarbonyloxymethyl)-4-oxa-1-azabicyclo [3,2,0] heptan-7-one] | – | 6.18 | 5.95 |
| Cc1c(C(=O)NC[C@@H]2CN3C(=O)C[C@@H]3O2)c(=O)[nH]c2ccccc12 (racemic) [Example 16, (3RS, 5SR)-3-(1,2-dihydro-4-methyl-2-oxo-quinolin-3-yl)-carbonylaminomethyl-4-oxa-1-azabicyclo [3,2,0] heptan-7-one] | – | 5.38 | 6.15 |
| Cc1c(C(=O)OC[C@H]2CN3C(=O)C[C@@H]3O2)c(=O)[nH]c2ccccc12 (relative stereo) [Example 10, (3RS, 5SR)-3-(1,2-dihydro-4-methyl-2-oxo-guinolin-3-yl)-carbonyloxymethyl-4-oxa-1-azabicyclo [3,2,0] heptan-7-one] | – | 5.52 | 6.85 |
| O=C(/C=C/c1ccccc1)OC[C@H]1CN2C(=O)C[C@@H]2O1 (relative stereo) [Example 13, (3RS, 5SR)-3-(trans-3-phenylpropenoyl)oxymethyl-4-oxa-1-azabicyclo [3,2,0] heptan-7-one] | – | 5.39 | 6.35 |
| Cn1c2nc(=O)[nH]c(=O)c-2nc2cc(C(=O)OC[C@H]3CN4C(=O)C[C@@H]4O3)ccc21 (relative stereo) [Example 14, (3RS, 5SR)-3-(10-methylisoalloxazin-7-yl)-carbonyloxy methyl-4-oxa-1-azabicyclo [3,2,0] heptan-7-one] | – | 4.77 | 6.12 |

— US5925633A, “3-Substituted-4-oxa-1-azabicyclo [3,2,0]heptan-7-one as cysteine protease inhibitors” (Synphar Laboraties, Inc., priority 1996, dated 1999)
